Reference: US20090176817A1, “Method of Treatment of Diarrhea-Predominant Irritable Bowel Syndrome in a Subject” (priority 2005, published 2009)

Tests used:
clinical = conditions: human, in vivo, iv
Description: The pharmacokinetics of intravenously administered cilansetron have also been evaluated in several studies. In a randomized, double-blind, placebo controlled, rising dose, crossover study in 24 male subjects, aged 23-37 years, the single-dose pharmacokinetics of IV cilansetron were evaluated over a 4 mg to 16 mg dose range. Subjects received, at intervals of 1 week, single doses of 4, 8, and 16 mg IV cilansetron in ascending order and a randomized placebo. Infusion times ranged from 15-30 minutes. All doses were administered under fasted conditions.
In a randomized, double-blind, placebo controlled, rising dose, crossover study, 24 male subjects (aged 23-37 years) received single doses of 4, 8, and 16 mg IV cilansetron in ascending order and a randomized placebo, infused over 15-30 minutes. All doses were administered under fasted conditions. FIG. 14 and FIG. 15 present box plots of cilansetron AUC(0-inf) and dose-normalized AUC(0-inf) values (normalized to a 1 mg dose), respectively, and Table 2.7.2.3.13 presents descriptive statistics for the results of statistical pairwise comparisons of dose-normalized parameters between doses.

[1] = system: diarrhea-predominant IBS subjects; test: Study S241.3.009: interruption of activities assessment; assay type: in vivo, human; conditions: for Percentage of Subjects Who Worsened from Baseline: Interruption of Activities: S241.3.009, 2 mg TID, observed value
Text: Studies S24 1.3.OO6, S24 1.3.0 1 1, and S24 1.3.009 used the following efficacy measurements: • The subjects answered the following three questions with “yes” or “no” using a phone diary at the end of each week: • a) During the last week, did you experience adequate relief of your IBS symptoms, such as abdominal pain, abdominal discomfort, abnormal bowel habits? • b) During the last week, did you experience adequate relief of your abdominal pain and/or discomfort? • c) During the last week, did you experience adequate relief of your abnormal bowel habits? • The subjects rated the following symptoms using the phone diary at the end of each day: • abdominal pain/discomfort (five-point scale); • stool consistency (seven-point Bristol Stool Scale); • stool frequency (number of bowel movements each day); • urgency (five-point scale); • straining (yes or no); • feeling of incomplete defecation (yes or no); • bloating or feeling of abdominal distension (five-point scale). • In Studies S241 A006 and S241.3.009, subjects completed the IBS-QOL Survey at Baseline (Day 1) and at the end of treatment. In Study S24 1.3.0 1 1, subjects completed the IBS-QOL Survey at Baseline (Day 1), at the end of the three-month treatment period, and at the end of rerandomized treatment.
Other secondary efficacy parameters for all three studies included: • Responder rate for the weekly diary questions on adequate relief at each month, where a responder for a month (monthly responder) was defined as a subject who answered the weekly question with “yes” at least twice for that month. The responder rate was the percentage of responders within a treatment group. The all-month responder rate for the weekly diary questions on adequate relief was also evaluated, where an all-month responder was defined as a subject who answered the weekly question with “yes” at least twice for each month. The all-month responder rate was the percentage of all-month responders within a treatment group; • Adequate relief rate for the weekly diary questions was calculated for each subject as the number of weekly assessments with adequate relief (“yes”) divided by the total number of weekly assessments; • Percentage of subjects with adequate relief for the weekly diary questions at each week; • Daily diary questions regarding abdominal pain/discomfort (five-point scale), stool consistency (seven-point scale), stool frequency (number of bowel movements each day), straining (yes or no), urgency (five-point scale), feeling of incomplete evacuation (yes or no), and bloating or feeling of abdominal distention (five-point scale); • QOL data assessed by the IBS-QOL questionnaire; and • Question to determine the interruption of activities.

[2] = both, human, in vivo
Description: Diurnal variations in cilansetron pharmacokinetics have been evaluated in a randomized, double-blind, placebo-controlled, 2-way crossover study in 9 male and 9 female healthy subjects, aged 21 to 39 years. Subjects were randomized to receive 2 treatments (cilansetron 16 mg tablet and placebo) during the 2 treatment periods. During each treatment period, subjects received a single dose of their assigned treatment on the first day (Day 1), after which they received the same treatment TID for 4 days (Days 2-5). There was a 10-day washout period between treatment periods. Subjects were fasted for at least 2 hours before and following each dose, and heavy physical activity was restricted. Serial blood samples for the measurement of multiple-dose pharmacokinetics of cilansetron were collected up to 24 hours postdose on Day 5.

CYP3A5 = conditions: hepatocytes
[3] = system: diarrhea-predominant IBS subjects; test: Study S241.3.011: safety; assay type: in vivo, human
Text: The primary efficacy parameter was the number of months that a subject was a responder for IBS symptoms (abdominal pain, abdominal discomfort, abnormal bowel habits) over the 12-week treatment period. A responder for a month (monthly responder) was defined as a subject who answered the weekly question with “yes” at least twice for that month. The two main secondary efficacy parameters were the monthly responder rates based on the “adequate relief” questions regarding abdominal pain/discomfort and abnormal bowel habits during the 12-week treatment period. The overall response rate and responder rate for the weekly diary questions on adequate relief at each month and all months, the adequate relief rate, the number of subjects with adequate relief by week, daily diary questions, IBS-QOL scores, and the interruption of activities were also assessed. Safety was evaluated by physical examination, ECG, vital signs, laboratory evaluations, concomitant medications, and AEs.

## Cc1nccn1C[C@H]1CCc2c(c3cccc4c3n2CCC4)C1=O [Cilansetron, (R)-(−)-4,5,6,8,9,10-hexahydro-10-[(2-methyl-1H-imidazol-1-yl)methyl]-11H-pyrido-[3,2,1-jk]-carbazol-11-one]
clinical
  clearance: 550 to 800 mL/min
clinical; male
  DN-AUC(0-inf) ratio 8 mg/4 mg: 121%
  DN-AUC(0-inf) ratio 16 mg/4 mg: 124%
  DN-AUC(0-inf) ratio 16 mg/8 mg: 102%
  DN-AUC(0-last) ratio 8 mg/4 mg: 123%
  DN-AUC(0-last) ratio 16 mg/4 mg: 126%
  DN-AUC(0-last) ratio 16 mg/8 mg: 102%
  Renal elimination: < 1 % of dose
  clearance: 550 to 700 mL/min
  half-life: 1.4 to 1.7 h
clinical; male, 4 mg
  AUC(0-inf): 0.103 µg·h/mL
  AUC(0-t): 0.1 µg·h/mL
  CL renal: 2.95 mL/min
  Vd: 99 L
  clearance: 680 mL/min
  half-life: 1.7 h
clinical; male, 8 mg
  AUC(0-inf): 0.254 µg·h/mL
  AUC(0-t): 0.251 µg·h/mL
  CL renal: 2.64 mL/min
  Vd: 78 L
  clearance: 567 mL/min
  half-life: 1.62 h
clinical; male, 16 mg
  AUC(0-inf): 0.525 µg·h/mL
  AUC(0-t): 0.518 µg·h/mL
  CL renal: 2.65 mL/min
  Vd: 68 L
  clearance: 564 mL/min
  half-life: 1.41 h
[1]; Endpoint
  Subjects “not at all or rarely” bothered by IBS symptoms: 54%
[1]; Month 1
  Subjects worsened from Baseline, interruption of activities: 5%
  Percentage of Subjects Who Worsened from Baseline: Interruption of Activities: 5%
[1]; Month 3
  Percentage of Subjects Who Worsened from Baseline: Interruption of Activities: 3%
[1]; Month 6
  Percentage of Subjects Who Worsened from Baseline: Interruption of Activities: 2%
[2]
  AUC ratio 0-8 h/8-16 h: 106 (99, 115) %
  AUC ratio 0-8 h/16-24 h: 110 (103, 119) %
  AUC ratio 8-16 h/16-24 h: 104 (96, 111) %
  Cmax ratio 0-8 h/8-16 h: 130 (111, 153) %
  Cmax ratio 0-8 h/16-24 h: 133 (113, 157) %
  Cmax ratio 8-16 h/16-24 h: 102 (87, 120) %
[2]; 16 mg
  Mean Cmax higher after morning dose than mid-day and evening doses: 30-33%
CYP3A5
  CYP3A5 mRNA: doubled
[3]; 2 mg TID, 388 randomized, S241.3.011
  Number of subjects who died during the three-month treatment period: 1 (<1) n (%)
[3]; female, human, in vivo, 3 months
  Constipation: 26%
[3]; human, in vivo
  Fecal occult blood positive and/or blood in stool: 7%
[3]; human, in vivo, 3 months
  Abdominal distension: 5%
  Abdominal pain NOS: 6%
  Abdominal pain upper: 2%
  Constipation: 20%
  Flatulence: 4%
  Serious AEs: 2%
  Subjects with at least one TEAE: 69%
[3]; human, in vivo, 4 months
  At least one TEAE, entire four-month period: 78%
[3]; in vivo
  TEAEs leading to permanent discontinuation: Eleven
[3]; male, human, in vivo, 3 months
  Constipation: 8%
